# Test results published in patent US6706744B2, “Glucagon antagonists/inverse agonists” (Novo Nordisk A/S, priority 2000, dated 2004).
# Tests used:
# [1] = target: T1, human GIP receptor (Homo sapiens, UniProt P48546); test: GIP binding assay; settings: membranes of BHK cells transfected with human GIP receptor; 125I-GIP tracer; SPA
# T1 construct: expressed in transfected cells; host or cells: BHK (baby hamster kidney) cells; membrane preparation
# T1 sequence (P48546 22-466): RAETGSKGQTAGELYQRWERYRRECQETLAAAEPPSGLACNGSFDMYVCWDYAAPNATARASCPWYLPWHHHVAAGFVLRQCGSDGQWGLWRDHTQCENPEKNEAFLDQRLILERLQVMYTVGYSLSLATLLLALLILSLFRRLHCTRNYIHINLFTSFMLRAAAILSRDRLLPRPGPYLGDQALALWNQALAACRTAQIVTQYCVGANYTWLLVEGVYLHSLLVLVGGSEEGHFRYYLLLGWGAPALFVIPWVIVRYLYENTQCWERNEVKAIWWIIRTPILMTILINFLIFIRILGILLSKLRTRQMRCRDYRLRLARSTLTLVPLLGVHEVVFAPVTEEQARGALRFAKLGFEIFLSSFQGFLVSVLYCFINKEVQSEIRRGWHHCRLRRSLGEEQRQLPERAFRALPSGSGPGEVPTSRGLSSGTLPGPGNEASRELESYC
# Description: (§1) BHK (baby hamster kidney cell line) cells are transfected with the human GIP receptor and a membrane preparation of the cells is prepared. Wheat Germ Agglutinin derivatized SPA beads containing a scintillant (WGA beads) (Amersham) bound the membranes. ^125I-GIP bound to human GIP receptor in the membranes and excited the scintillant in the WGA beads to light emission. GIP or samples binding to the receptor competed with ^125I-GIP.
# (§2) All steps in the membrane preparation are kept on ice or performed at 4° C. BHK cells are harvested and centrifuged. The pellet is resuspended in homogenisation buffer (25 mM HEPES, pH=7.4, 2.5 mM CaCl2, 1.0 mM MgCl2, 250 mg/l bacitracin, 0.1 mM Pefabloc), homogenised 2×10 sec using Polytron 10-35 homogenizer (Kinematica) and added the same amount of homogenisation buffer as used for resuspension. After centrifugation (15 min at 2000×g) the supernatant is transferred to cold centrifuge tubes and centrifuged for 45 min at 40.000×g. The pellet is resuspended in homogenisation buffer, homogenised 2×10 sec (Polytron) and additional homogenisation buffer is added. The suspension is centrifuged for 45 min at 40.000×g and the pellet is resuspended in resuspension buffer (25 mM HEPES, pH=7.4, 2.5 mM CaCl2, 1.0 mM MgCl2) and homogenised 2×10 sec. (Polytron). The protein concentration is normally around 1.75 mg/ml. Stabilisation buffer (25 mM HEPES, pH=7.4, 2.5 mM CaCl2, 1.0 mM MgCl2, 1% bovine serum albumin, 500 mg/l bacitracin, 2.5 M sucrose) is added and the membrane preparation is stored at −80° C.
# The GIP binding assay is carried out in opti plates (Polystyrene Microplates, Packard). 50 μl assay buffer (25 mM HEPES, pH=7.5, 2.5 mM CaCl2, 1.0 mM MgCl2, 0.003% Tween-20, 0.005% bacitracin, 0.05% sodium azide) and 5 μl GIP or test compound (in DMSO) are added to each well. 50 μl tracer (^125I-porcine GIP, 50.000 cpm) and 50 μl membranes (20 μg) containing the human GIP receptor are then added to the wells. Finally 50 μl WGA beads containing 1 mg beads are transferred to the well. The opti plates are incubated for 3.5 hours on a shaker and then settled for 8-48 hours. The opti plates are counted in a Topcounter. Non-specific binding is determined with 500 nM of GIP.
# [2] = target: T2, human glucagon receptor (Homo sapiens, UniProt P47871); test: Glucagon binding assay (II); settings: membranes of BHK cells transfected with human glucagon receptor; 125I-glucagon tracer; SPA
# T2 construct: expressed in transfected cells; host or cells: BHK (baby hamster kidney) cells; membrane preparation
# Description: Glucagon Binding Assay (II)
# as §1, with “human glucagon” for “human GIP”, “membranes. ^125I-glucagon” for “membranes. ^125I-GIP”, “emission. Glucagon” for “emission. GIP”, “with ^125I-glucagon.” for “with ^125I-GIP.”
# as §2, with “0, 1” for “0.1”
# The glucagon binding assay is carried out in opti plates (Polystyrene Microplates, Packard). 50 μL assay buffer (25 mM HEPES, pH=7.5, 2.5 mM CaCl2, 1.0 mM MgCl2, 0.003% Tween-20, 0.005% bacitracin, 0.05% sodium azide) and 5 μl glucagon or test compound (in DMSO) are added to each well. 50 μl tracer (^125I-porcine glucagon, 50.000 cpm) and 50 μl membranes (7.5 μg) containing the human glucagon receptor are then added to the wells. Finally 50 μl WGA beads containing 1 mg beads are transferred to the well. The opti plates are incubated for 4 hours on a shaker and then settled for 8-48 hours. The opti plates are counted in a Topcounter. Non-specific binding is determined with 500 nM of glucagon.
# T2 sequence (P47871 26-477): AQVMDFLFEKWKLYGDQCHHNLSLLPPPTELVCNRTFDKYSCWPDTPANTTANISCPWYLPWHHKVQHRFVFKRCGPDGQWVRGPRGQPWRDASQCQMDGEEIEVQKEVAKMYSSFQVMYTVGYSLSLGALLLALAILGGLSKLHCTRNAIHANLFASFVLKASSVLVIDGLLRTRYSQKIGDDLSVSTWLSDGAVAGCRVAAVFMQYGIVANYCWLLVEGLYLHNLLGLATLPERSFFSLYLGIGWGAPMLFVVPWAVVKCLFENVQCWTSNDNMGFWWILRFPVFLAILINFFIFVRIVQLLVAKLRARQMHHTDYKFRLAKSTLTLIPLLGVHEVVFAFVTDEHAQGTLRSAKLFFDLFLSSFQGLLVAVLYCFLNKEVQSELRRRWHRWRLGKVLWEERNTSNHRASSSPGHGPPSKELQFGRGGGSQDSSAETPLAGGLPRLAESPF
Structure (SMILES),IC50 [1] [nM],IC50 [2] [nM],melting point [°C]
"CS(=O)(=O)c1cc(NC(=O)N(Cc2ccc(C(=O)NCCC(=O)O)cc2)c2ccc(C3=CCCCC3)cc2)ccc1OC(F)(F)F [Example 6, 3-{4-[1-(4-Cyclohexen-1-ylphenyl)-3-(3-methanesulfonyl-4-trifluoromethoxyphenyl)ureidomethyl]benzoylamino}propionic acid]",177,9,–
"O=C(O)CCNC(=O)c1ccc(CN(C(=O)Nc2cccc(C(F)(F)F)c2)c2ccc(C3CCCCC3)cc2)cc1 [Example 7, 3-{4-[1-(4-Cyclohexylphenyl)-3-(3-trifluoromethylphenyl)ureidomethyl]benzoylamino}propionic acid]",82,29,–
"O=C(O)CCNC(=O)c1ccc(CN(C(=O)Nc2ccc(OC(F)(F)F)c(CO)c2)c2ccc(C3=CCCCC3)cc2)cc1 [Example 11, 3-{4-[1-(4-Cyclohex-1-enylphenyl)-3-(3-hydroxymethyl-4-trifluoromethoxyphenyl)ureidomethyl]benzoylamino}propionic acid]",152,64,–
"O=C(O)CCNC(=O)c1ccc(CN(C(=O)Nc2cccc(OC(F)(F)F)c2)c2ccc(C3=CCCCC3)cc2)cc1 [Example 3, 3-{4-[3-(3-Trifluoromethoxyphenyl)-1-(4-cyclohex-1-enylphenyl)ureidomethyl]benzoylamino}propionic acid]",34,25,–
"O=C(O)CCNC(=O)c1ccc(CN(C(=O)Nc2cc(F)cc(C(F)(F)F)c2)c2ccc(C3CCCCC3)cc2)cc1 [Example 4, 3-{4-[1-(4-Cyclohexylphenyl)-3-(3-fluoro-5-trifluoromethylphenyl)ureidomethyl]benzoylamino}propionic acid]",90,29,–
"O=C(O)CCNC(=O)c1ccc(CN(C(=O)Nc2cccc(Br)c2)c2ccc(C3=CCCCC3)cc2)cc1 [Example 2, 3-{4-[3-(3-Bromophenyl)-1-(4-cyclohex-1-enylphenyl)ureidomethyl]benzoylamino}propionic acid]",198,53,–
"O=C(O)CCNC(=O)c1ccc(CN(C(=O)Nc2ccc(OC(F)(F)F)c(CO)c2)c2ccc(C3CCCCC3)cc2)cc1 [Example 10, 3-{4-[1-(4-Cyclohexylphenyl)-3-(3-hydroxymethyl-4-trifluoromethoxyphenyl)ureidomethyl]benzoylamino}propionic acid]",107,49,167.5 to 168.5
"N#Cc1cc(NC(=O)N(Cc2ccc(C(=O)NCCC(=O)O)cc2)c2ccc(C3=CCCCC3)cc2)cc(C(F)(F)F)c1 [Example 9, 3-{4-[3-(3-Cyano-5-trifluoromethylphenyl)-1-(4-cyclohex-1-enylphenyl)ureidomethyl]benzoyl-amino}propionic acid]",122,42,–
"O=C(O)CCNC(=O)c1ccc(CN(C(=O)Nc2cccc(Br)c2)c2ccc(C3CCCCC3)cc2)cc1 [Example 5, 3-{4-[3-(3-Bromophenyl)-1-(4-Cyclohexylphenyl)ureidomethyl]benzoylamino}propionic acid]",265,42,–
"N#Cc1cc(NC(=O)N(Cc2ccc(C(=O)NCCC(=O)O)cc2)c2ccc(C3CCCCC3)cc2)cc(C(F)(F)F)c1 [Example 8, 3-{4-[3-(3-Cyano-5-trifluoromethylphenyl)-1-(4-cyclohexylphenyl)ureidomethyl]benzoyl-amino}propionic acid]",76,35,–
"C[C@H](NC(=O)N(Cc1ccc(C(=O)NCCC(=O)O)cc1)c1ccc(C2CCCCC2)cc1)c1ccc(Cl)cc1 [Example 1, 3-{4-[3-[1(S)-(4-Chlorophenyl)ethyl]1-(4-cyclohexylphenyl)ureidomethyl]benzoylamino}propionic acid]",644,64,–
